We go through 2 compounds from US11578081B1, “Crystal form as inhibitor of ACC1 and ACC2, and preparation method therefor and use thereof” (ZHANGZHOU PIEN TZE HUANG PHARMACEUTICAL CO., LTD., priority 2019, dated 2023).

Series [1] addresses human acetyl-CoA carboxylase 2 (hACC2) (Homo sapiens, UniProt O00763). The series is described as follows: In vitro ACC enzyme inhibition (ADP fluorescence), hACC2. The note with it: pre-incubated 15 minutes, 1 hour at room temperature. In kind it is biochemical. The protocol:
(§1) To evaluate the ability of a test compound to inhibit acetyl-CoA carboxylase (ACC) by determining the IC50 value.
(§2) 1. Proteins: human acetyl-CoA carboxylase 1 (hACC1) and human acetyl-CoA carboxylase 2 (hACC2).
(§3) 3. Cofactors: acetyl-CoA and ATP (adenosine triphosphate)
(§4) 4. Activator: potassium citrate
(§5) 1. One-fold enzyme/substrate/cofactor was added to microwells of a well plate.
(§6) 2. According to an Acoustic technique, a solution of a compound in DMSO was added to the enzyme mixture, and the resulting mixture was pre-incubated for 15 minutes.
(§7) 3. ATP was added thereto to initiate the reaction, and the mixture was shaken uniformly.
(§8) 4. The mixture was incubated for 1 hour at room temperature.
(§9) 5. The reaction was quenched, and then incubated for additional 40 minutes.
(§10) 6. A detection reagent was added and the resulting mixture was incubated for 30 minutes.
(§11) 7. Fluorescence was tested.
(§12) 8. Data analysis was performed: based on the standard curve of ADP, the fluorescence signal was converted to the ADP product concentration and the enzyme activity was calculated. The curve was fitted using Graphpad Prism software to obtain the IC50 value.

The target of series [2] is human acetyl-CoA carboxylase 1 (hACC1) (Homo sapiens, UniProt Q13085). The series is described as follows: In vitro ACC enzyme inhibition (ADP fluorescence), hACC1. In kind it is biochemical. The note with it: pre-incubated 15 minutes, 1 hour at room temperature. The protocol: as §1, §2, §3, §4, §5, §6, §7, §8, §9, §10, §11, §12
Series [3] in a line: Pharmacokinetic evaluation in C57BL/6 mice. In kind it is in vivo. Conditions: mouse, plasma, male C57BL/6 mice. The protocol:
To test the pharmacokinetics of the compound in C57BL/6 mice Experimental materials:
C57BL/6 mice (male, 18 to 30 g, 7 to 9 weeks old, Shanghai Lingchang Biotechnology Co., Ltd.)
A clear solution of a test compound (0.5 mg/ml, 10% DMSO, 10% polyethylene glycol stearate, and 80% water) was injected via tail veins into 4 male C57BL/6 mice (overnight fasting, 7 to 9 weeks old), at a dose of 2.0 mg/kg. A suspension of the test compound or the clear solution thereof (1 mg/ml, 10% PEG400, 90% (0.5% methylcellulose+0.2% Tween 80)) was administered by gavage to 4 male C57BL/6 mice (overnight fasting, 7 to 9 weeks old), at a dose of 10 mg/kg.
Two mice were set in a group and subjected to blood sampling alternatively, with 4 to 5 blood sampling time points per mouse. At 0.0833 h (IV group only), 0.25 h, 0.5 h, 1.0 h, 2.0 h, 4.0 h, 6.0 h, 8.0 h, and 24 h after the mice were administered intravenously or by gavage, about 30 μL of blood was collected by saphenous vein puncture and placed in an anticoagulation tube supplemented with EDTA-K2, and the plasma was separated by centrifugation. The LC-MS/MS method was used to determine the blood drug concentration, and the WinNonlin™ Version 6.3 (Pharsight, Mountain View, Calif.) pharmacokinetic software was used to calculate the relevant pharmacokinetic parameters by the non-compartmental model linear logarithmic trapezoidal method.

In series [4] the test system is HFD+CCl4-induced NASH mouse model. Briefly: In vivo pharmacodynamic study in HFD+CCl4-induced NASH mouse model. The note with it: HFD+CCl4 mice; 0.5, 1, 3 mg/kg by gavage QD day 0 to day 27; reference I-181 3 mg/kg. An excerpt: To study the effect of a compound on improving NASH and liver fibrosis in an HFD+CCl4 mouse model, with I-181 as a reference compound.
I-181 is an acetyl-CoA carboxylase inhibitor and is currently undergoing a phase II clinical study on non-alcoholic fatty liver disease (NAFLD). The HFD+CCl4 mouse model used in this study is an animal model that simulates human non-alcoholic fatty liver disease evolving into NASH. High-fat diet leads to fat accumulation and steatosis in liver cells; CCl4 (intraperitoneal injection, twice a week) simulates the “second hit” of liver injury.
The modeling for this experiment included two steps: high-fat diet feeding and CCl4 induction. Firstly, the mice were fed with high-fat diet to induce non-alcoholic fatty liver, and the mice weighing more than (>) 38 g were selected and continuously fed with high-fat diet, accompanied by the intraperitoneal injection of 25% CCl4 ([…], twice a week, for a total of four weeks). The day of starting CCl4 administration was set as day 0, and the time of starting CCl4 administration was set as hour 0. On the day of starting CCl4 administration, the administration by gavage was started, and the administration volume of each group was 5 mL/kg, once a day for 4 weeks (28 days). The injection time of CCl4 should be more than 4 hours apart from the first administration time point of the day. […]

Series [5] in a line: Physical stability test of crystal form A as a solid under temperature, humidity and light (XRPD). The note with it: 60° C. and 92.5% RH for 5 and 10 days; ICH visible and UV light; 60° C./75% RH 1 and 2 months; 40° C./75% RH 1, 2 and 3 months. In kind it is physicochemical. The protocol: In order to evaluate the solid stability of a crystal form A, the influencing factors (high temperature, high humidity and light), accelerated stability conditions and intermediate stability conditions were investigated for the crystal form A.
The crystal form A was placed under high temperature (60° C., closed dish) and high humidity (room temperature, 92.5% RH (relative humidity), wrapped in a parafilm with 5 to 10 small holes) for 5 days and 10 days. According to ICH conditions (visible illuminance reached 1.2E06 Lux·hrs, and ultraviolet illuminance reached 200 W·hrs/m^2), the crystal form A was placed under visible light and ultraviolet light (the shading control group was wrapped in tin foil) in closed dish, and meanwhile, the crystal form A was placed under accelerated stability conditions (60° C./75% RH, wrapped in a parafilm with 5 to 10 small holes) for 1 and 2 months, and under intermediate stability conditions (40° C./75% RH, wrapped in a parafilm with 5 to 10 small holes) for 1, 2 and 3 months. The samples after placement were characterized by XRPD to detect the change of the crystal form.

Chain of human acetyl-CoA carboxylase 2 (hACC2) (O00763 whole entry): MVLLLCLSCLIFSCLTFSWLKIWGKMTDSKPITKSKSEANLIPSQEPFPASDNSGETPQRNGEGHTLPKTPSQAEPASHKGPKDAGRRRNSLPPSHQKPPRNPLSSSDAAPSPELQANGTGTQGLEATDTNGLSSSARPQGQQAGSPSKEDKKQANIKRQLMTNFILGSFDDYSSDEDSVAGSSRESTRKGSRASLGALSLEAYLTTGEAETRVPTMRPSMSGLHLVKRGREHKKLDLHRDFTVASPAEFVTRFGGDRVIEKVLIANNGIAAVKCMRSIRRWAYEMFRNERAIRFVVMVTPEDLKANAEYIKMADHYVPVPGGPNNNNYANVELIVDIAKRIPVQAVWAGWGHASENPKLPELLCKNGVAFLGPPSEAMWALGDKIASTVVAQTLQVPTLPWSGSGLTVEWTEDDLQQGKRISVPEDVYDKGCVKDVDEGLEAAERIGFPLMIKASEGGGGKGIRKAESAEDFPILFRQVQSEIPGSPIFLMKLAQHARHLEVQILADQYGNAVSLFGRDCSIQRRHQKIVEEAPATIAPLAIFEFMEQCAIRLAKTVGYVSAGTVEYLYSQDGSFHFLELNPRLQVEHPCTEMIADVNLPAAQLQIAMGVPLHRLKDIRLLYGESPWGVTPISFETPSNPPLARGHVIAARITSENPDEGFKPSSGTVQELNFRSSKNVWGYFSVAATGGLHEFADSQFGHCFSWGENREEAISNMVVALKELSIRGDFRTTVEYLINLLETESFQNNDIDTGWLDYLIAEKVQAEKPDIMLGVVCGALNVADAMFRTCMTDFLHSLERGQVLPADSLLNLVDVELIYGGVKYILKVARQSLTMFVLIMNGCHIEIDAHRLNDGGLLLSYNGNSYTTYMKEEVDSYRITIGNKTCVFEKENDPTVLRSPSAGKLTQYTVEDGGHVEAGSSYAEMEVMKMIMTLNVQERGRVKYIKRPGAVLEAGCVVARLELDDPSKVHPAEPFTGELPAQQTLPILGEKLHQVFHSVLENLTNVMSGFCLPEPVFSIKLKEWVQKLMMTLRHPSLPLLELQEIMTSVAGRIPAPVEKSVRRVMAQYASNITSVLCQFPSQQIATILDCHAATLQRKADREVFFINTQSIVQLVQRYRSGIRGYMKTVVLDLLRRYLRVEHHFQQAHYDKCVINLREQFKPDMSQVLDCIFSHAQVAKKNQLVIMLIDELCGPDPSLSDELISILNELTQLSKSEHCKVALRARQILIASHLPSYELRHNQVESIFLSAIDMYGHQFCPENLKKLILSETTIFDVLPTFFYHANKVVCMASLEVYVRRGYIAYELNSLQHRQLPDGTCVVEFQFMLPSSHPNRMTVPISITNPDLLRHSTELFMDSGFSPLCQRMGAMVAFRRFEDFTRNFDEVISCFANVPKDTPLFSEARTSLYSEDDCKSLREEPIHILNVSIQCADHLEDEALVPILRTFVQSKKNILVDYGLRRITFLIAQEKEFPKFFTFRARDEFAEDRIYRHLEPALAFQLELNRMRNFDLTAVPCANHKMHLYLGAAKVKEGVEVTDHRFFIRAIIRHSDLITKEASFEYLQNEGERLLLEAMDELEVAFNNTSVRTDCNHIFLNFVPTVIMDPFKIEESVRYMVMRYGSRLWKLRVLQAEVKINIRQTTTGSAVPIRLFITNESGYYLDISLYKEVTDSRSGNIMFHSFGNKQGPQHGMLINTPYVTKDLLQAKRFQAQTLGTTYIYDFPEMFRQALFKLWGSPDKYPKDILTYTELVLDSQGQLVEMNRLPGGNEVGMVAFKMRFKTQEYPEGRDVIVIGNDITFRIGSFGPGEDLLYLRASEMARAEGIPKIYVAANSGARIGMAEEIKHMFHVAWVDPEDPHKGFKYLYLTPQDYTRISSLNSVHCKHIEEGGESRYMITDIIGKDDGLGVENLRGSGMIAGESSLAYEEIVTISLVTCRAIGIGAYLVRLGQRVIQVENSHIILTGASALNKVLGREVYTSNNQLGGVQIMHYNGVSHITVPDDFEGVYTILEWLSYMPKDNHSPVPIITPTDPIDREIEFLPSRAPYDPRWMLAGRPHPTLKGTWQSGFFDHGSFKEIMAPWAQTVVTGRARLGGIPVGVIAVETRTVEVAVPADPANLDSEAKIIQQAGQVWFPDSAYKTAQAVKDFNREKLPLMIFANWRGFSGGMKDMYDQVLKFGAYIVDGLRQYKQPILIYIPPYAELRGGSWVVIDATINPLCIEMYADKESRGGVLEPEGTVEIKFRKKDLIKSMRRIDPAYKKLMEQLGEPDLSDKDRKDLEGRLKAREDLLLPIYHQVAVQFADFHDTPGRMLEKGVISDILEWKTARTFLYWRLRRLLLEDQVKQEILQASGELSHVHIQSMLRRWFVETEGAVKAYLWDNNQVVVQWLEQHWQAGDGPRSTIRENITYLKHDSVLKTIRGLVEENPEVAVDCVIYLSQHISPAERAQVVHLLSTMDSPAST

Turning to `COc1ccccc1[C@H](Cn1nc(C(C)(C)C(=O)O)c(=O)c2c(C)c(-c3ncco3)sc21)OC1CCOCC1` [Compound of formula (I)], the values for the concentration for half-maximal inhibition (IC50) in series [1] and in series [2] were 10.3 nM and 14.1 nM, respectively. Also, the bioavailability in series [3] (po, gavage 10 mg/kg vs IV 2.0 mg/kg, read-out: Bioavailability F) is 66.7%. The clearance in series [3] (IV 2.0 mg/kg and gavage 10 mg/kg study, route per parameter not given, read-out: Clearance rate) stood at 27.3 mL/min/kg. The AUC in series [3] (IV 2.0 mg/kg and gavage 10 mg/kg study, route per parameter not given, read-out: Concentration integral AUC) was found to be 7.21 µM·h. Also, in series [3] (IV 2.0 mg/kg and gavage 10 mg/kg study, route per parameter not given, read-out: Half-life T1/2 (converted)), the half-life is 1.85 h. Also, in series [4], the “Efficacy on NAS versus reference compound” value is recorded as “achieves the same efficacy as the reference compound at a higher dose”. Moreover, the “Efficacy on fibrosis versus reference compound” value in series [4] was “achieves the same efficacy as the reference compound at a higher dose”.

In the case of `COc1ccccc1[C@H](Cn1nc(C(C)(C)C(=O)O)c(=O)c2c(C)c(-c3ncco3)sc21)OC1CCOCC1` [crystal form A], the “Change of the crystal form (XRPD) after placement” value in series [5] is reported as “remains unchanged under all stability conditions”.
